Measured values taken from patent US20180078615A1, “USE OF CCL2 TO INHIBIT ABNORMAL UTERINE BLEEDING” (UNIVERSITY OF SOUTH FLORIDA, priority 2015, published 2018).

Key:
VSMCs [1] = test: Whole genome microarray analysis (Illumina HumanHT-12 v4) of cultured VSMCs treated with progestins; format: cell-based, human; conditions: VSMCs treated by P4
Text: Cultured VSMCs (n=3) treated with control medium or medium containing medroxyprogesterone acetate (MPA, 10^−7 M), or etonogestrel (ETO, 10^−7 M) were processed for whole genome analyses using Illumina Human microarray kit. After qRT-PCR confirmation of several up and down regulated genes from microarray data, Ingenuity Pathway Analysis (IPA) determined relevant upstream signaling of LAPC altered gene expression. To investigate the role of genes and relevant signaling molecules identified by IPA, VSMCs (n=3) treated with MPA or ETO±1 or 10 ng/ml recombinant CCL2 (rCCL2)±STAT1 inhibitor, 5′-methyl-thioadenosine (MTA, 100 μM) were analyzed by BrdU incorporation proliferation, TUNEL based ELISA apoptosis and Transwell insert migration assays.
VSMCs were thawed and cultured in medium 231 (M231; Life Technologies) with smooth muscle growth supplement (5% FBS; 2 ng/mL human basic fibroblast growth factor, 0.5 ng/mL human epidermal growth factor, 5 ng/mL heparin, 0.2 μg/mL insulin and 5 μg/mL BSA; Life Technologies) with 100 U/mL penicillin, 100 μg/mL streptomycin, 0.25 μg/mL fungizone. Confluent VSMCs were washed twice with 1×PBS to remove residual serum, passaged in 96-well or 6-well plates and incubated in parallel in M231 with 1% charcoal striped FBS with 0.1% ethanol (vehicle, control) or 10^−7 M MPA (Sigma-Aldrich) or 10^−7 M ETO (Organon) or 10^−7 M P4 (Sigma-Aldrich) for 15 min, 6, 48, and 72 h. VSMCs were then washed with ice-cold PBS and stored at −80° C. for further RNA and protein analyses.
Total RNA was isolated using Qiagen miRNeasy Mini Kit (Qiagen) and RNeasy MinElute Cleanup Kit (Qiagen). The quality of isolated RNAs was confirmed using an Agilent 2100 Bioanalyzer. Microarray analysis was limited to those specimens in which RNA Integrity Number exceeded 8. Microarray processes were performed in the Keck Biotechnology Resource Laboratory at Yale University (New Haven, Conn.) using Illumina Human HT-12 v4 BeadChip (Illumina). Raw data without normalization were analyzed by GeneSpring GX12.5 software (Agilent Technologies-Silicon Genetics). Normalization was performed as described (35). Genes with a fold-change >1.25 and a P value<0.05 were considered differentially expressed. Ingenuity Pathway Analysis (IPA) software (Qiagen) explored molecular and biological networks related to differentially expressed genes.

VSMCs [2] = test: Transwell insert migration assay; format: cell-based, human; conditions: 12-h incubation, 10^−7 M; control 48.4%
Experimental: VSMCs (75,000 cells/200 μL) were suspended in M231 containing 1% charcoal striped FBS and either 0.1% ethanol (vehicle control) or the corresponding steroids and seeded onto insert wells (transwell filter with 12-μm pores; EMD Millipore). The inserts were then placed in 24-well plates containing 500 μL M231 with 1% charcoal striped FBS. After 12 h, cells remaining on the upper surface of the filter were removed with a cotton swab. Migrated cells were trypsinized, centrifuged, and resuspended in 200 μL of M231 medium. The cell suspensions were mixed with 200 μL 10% ethanol containing 0.4% Trypan blue dye and the live cell number was counted by Countess Automated Cell Counter (Invitrogen). See further details in SI Materials and Methods.
Cultured VSMCs were grown in T-75 cell culture flasks in M231 (Life Technologies) with smooth muscle growth supplement (Life Technologies) with 100 U/mL penicillin, 100 μg/mL streptomycin, 0.25 μg/mL fungizone. Confluent VSMCs were washed twice with 1×PBS to remove residual serum, and then trypsinized, resuspended (75,000 cells per 200 μL per well) in M231 with 1% charcoal striped FBS with 0.1% ethanol (vehicle, control), 10^−7 M MPA (Sigma-Aldrich), 10^−7 M ETO (Organon), or 10^−7 M P4 (Sigma-Aldrich)±rCCL2 (R&D Systems) and seeded on insert wells (transwell filter with 12-μm pores; EMD Millipore), which were then placed in 24-well plates containing 500 μL M231 with 1% charcoal striped FBS. After 12 h, cells remaining on the upper surface of the filter were removed with a cotton swab. Migrated cells attached to the lower surface of each insert or to the surface of lower wells were collected by trypsinization, followed by centrifugation and resuspension in 200 μL of M231 medium. The cell suspensions were mixed with 200 μL 10% ethanol containing 0.4% Trypan blue dye (selectively stains only dead cells blue, whereas live cells with intact cell membranes remain unstained) for 5 min. A mixture of 100 μL M231 and 100 μL 10% ethanol containing 0.4% Trypan blue dye was used as a negative control. To detect live cell numbers, 10 μL of final cell/Trypan blue dye suspension from each treatment condition was pipetted into Countess Cell Counting Chamber Slide and counted by using Countess Automated Cell Counter (Invitrogen). The counting procedure was performed in duplicate.

Compound: CC(=O)[C@H]1CC[C@H]2[C@@H]3CCC4=CC(=O)CC[C@]4(C)[C@H]3CC[C@]12C [P4, progesterone]
- Fold-change, Chemokine (C-C motif) ligand 2 (CCL2) (VSMCs [1]): −1.289
- Fold-change, Chromosome 9 ORF 167 (C9orf167) (VSMCs [1]): −1.283
- Fold-change, Complement factor B (CFB) (VSMCs [1]): −1.309
- Fold-change, Complement factor H, transcript variant 2 (CFH) (VSMCs [1]): 1.271
- Fold-change, Cyclin C, transcript variant 2 (CCNC) (VSMCs [1]): 1.343
- Fold-change, Eukaryotic translation initiation factor 4 gamma, 2, transcript variant 1 (EIF4G2) (VSMCs [1]): 1.3
- Fold-change, Fukutin, transcript variant 2 (FKiTN) (VSMCs [1]): −1.299
- Fold-change, G protein-coupled receptor 1 (GPR1) (VSMCs [1]): −1.283
- Fold-change, Homo sapiens thioredoxin domain containing 5, transcript variant 2 (TXNDC5) (VSMCs [1]): 1.361
- Fold-change, Hypothetical LOC100190938 (LOC100190938), transcript variant 2, noncoding RNA (VSMCs [1]): −1.358
- Fold-change, Hypothetical gene supported by AK125735 (LOC441087) (VSMCs [1]): −1.467
- Fold-change, Hypothetical protein FLJ40504 (FLJ40504) (VSMCs [1]): −1.27
- Fold-change, Hypoxia-inducible factor 1, a subunit, transcript variant 1 (HIF1A) (VSMCs [1]): 1.328
- Fold-change, Integrin beta 1, transcript variant 1C-2 (ITGB1) (VSMCs [1]): 1.293
- Fold-change, Interleukin 33 (IL33) (VSMCs [1]): 1.275
- Fold-change, Janus kinase 1 (JAK1) (VSMCs [1]): 1.292
- Fold-change, Keratin 34 (KRT34) (VSMCs [1]): 1.268
- Fold-change, Microtubule-associated protein 1A (MAP1A) (VSMCs [1]): −1.269
- Fold-change, Minichromosome maintenance complex component 8, transcript variant 1 (MCM8) (VSMCs [1]): −1.32
- Fold-change, Mitogen-activated protein kinase kinase 2 (MAP2K2) (VSMCs [1]): −1.346
- Fold-change, N-deacetylase/N-sulfotransferase (heparan glucosaminyl) 1 (NDST1) (VSMCs [1]): −1.306
- Fold-change, OCIA domain containing 1, transcript variant 5 (OCIAD1) (VSMCs [1]): −1.275
- Fold-change, PREDICTED: misc_RNA (LOC100131609) (VSMCs [1]): 1.266
- Fold-change, Paralemmin, transcript variant 1 (PALM) (VSMCs [1]): −1.26
- Fold-change, Polyribonucleotide nucleotidyltransferase 1 (PNPT1) (VSMCs [1]): −1.286
- Fold-change, Retinoic acid receptor responder (tazarotene induced) 1, transcript variant 1, (RARRES1) (VSMCs [1]): −1.271
- Fold-change, Retinoic acid receptor responder (tazarotene induced) 1, transcript variant 2, (RARRES1) (VSMCs [1]): −1.289
- Fold-change, Ring finger protein 11 (RNF11) (VSMCs [1]): 1.256
- Fold-change, Serum amyloid A1, transcript variant 1 (SAA1) (VSMCs [1]): −1.324
- Fold-change, Serum amyloid A1 transcript variant 2 (SAA1) (VSMCs [1]): −1.566
- Fold-change, Solute carrier family 44, member 1 (SLC44A1) (VSMCs [1]): 1.26
- Fold-change, Staphylococcal nuclease and tudor domain containing 1 (SN D1) (VSMCs [1]): −1.25
- Fold-change, Sterol-C4-methyl oxidase-like, transcript variant 1 (SC4MOL) (VSMCs [1]): 1.296
- Fold-change, Superoxide dismutase 2, mitochondria! transcript variant 2 (SOD2) (VSMCs [1]): −1.362
- Fold-change, Thioredoxin reductase 1, transcript variant 4 (TXNRD1) (VSMCs [1]): 1.255
- Fold-change, Ubiquitin-like modifier activating enzyme 3, transcript variant 2 (UBA3) (VSMCs [1]): 1.293
- Fold-change, Zinc finger protein 682, transcript variant 1 (ZNF682) (VSMCs [1]): −1.254
- Fold-change, cDNA FLJ20769 fis, clone COL06674 (PREDICTED: Receptor tyrosine kinase-like orphan receptor 1) (VSMCs [1]): 1.271
- Fold-change, Armadillo repeat containing, X-linked 3, transcript variant 2 (ARMCX3) (VSMCs [1]; table entry 5): 1.298
- Fold-change, Armadillo repeat containing, X-linked 3, transcript variant 2 (ARMCX3) (VSMCs [1]; table entry 10): 1.284
- migration rate (VSMCs [2]): 39.4%
